Test results from ChEMBL document CHEMBL4819080, “Cannabidiol-dihydroartemisinin conjugates for ameliorating neuroinflammation with reduced cytotoxicity” (Bioorg Med Chem, 2021).
Calls of active or inactive are those of the source. No cut-off for these calls is given here.

Assays:
BV-2 [1] = assay: Antiinflammatory activity in mouse BV-2 cells assessed as reduction in LPS-induced nitric oxide production incubated for 24 hrs by 2, 3-diaminonaphthalene based assay; type: functional, cell-based
BV-2 [2] = assay: Cytotoxicity against mouse BV-2 cells assessed as reduction in cell viability upto 200 uM incubated for 24 hrs by crystal violet dye based assay; conditions: bv-2, 24 h
BV-2 [3] = assay: Antiinflammatory activity in mouse BV-2 cells assessed as reduction in LPS-induced iNOS mRNA expression at 100 uM incubated for 6 hrs by qRT-PCR analysis; type: functional, cell-based
BV-2 [4] = assay: Antiinflammatory activity in mouse BV-2 cells assessed as reduction in LPS-induced IL-1beta mRNA expression at 100 uM incubated for 6 hrs by qRT-PCR analysis; type: functional, cell-based
BV-2 [5] = assay: Cytotoxicity against mouse BV-2 cells assessed as reduction in cell viability incubated for 24 hrs by crystal violet dye based assay; conditions: BV-2, 24 h
BV-2 [6] = assay: Antiinflammatory activity in mouse BV-2 cells assessed as reduction in LPS-induced nitric oxide production incubated for 24 hrs in presence of DHA by 2, 3-diaminonaphthalene based assay; type: functional, cell-based
BV-2 [7] = assay: Cytotoxicity against mouse BV-2 cells assessed as reduction in cell viability incubated for 24 hrs in presence of DHA by crystal violet dye based assay; conditions: bv-2, 24 h
BV-2 [8] = assay: Inhibition of LPS-induced NF-kappaB activation in mouse BV-2 cells expressing luciferase gene at 5 to 100 uM incubated for 24 hrs by steady-glo luciferase assay; type: cell-based; conditions: dose 5-100 µM
BV-2 [9] = assay: Antiinflammatory activity in mouse BV-2 cells assessed as reduction in LPS-induced iNOS mRNA expression incubated for 6 hrs by qRT-PCR analysis; type: functional, cell-based; conditions: dose 20-100 µM
BV-2 [10] = assay: Antiinflammatory activity in mouse BV-2 cells assessed as reduction in LPS-induced IL-1beta mRNA expression incubated for 6 hrs by qRT-PCR analysis; type: functional, cell-based; conditions: dose 20-100 µM
BV-2 [11] = assay: Inhibition of LPS-induced NF-kappaB activation in mouse BV-2 cells assessed as reduction in IRAK1 phosphorylation at 100 uM incubated for 1 hr by Western blot analysis; type: cell-based
BV-2 [12] = assay: Inhibition of LPS-induced NF-kappaB activation in mouse BV-2 cells assessed as reduction in IKKalpha/beta phosphorylation at 100 uM incubated for 1 hr by Western blot analysis; type: cell-based
BV-2 [13] = assay: Inhibition of LPS-induced NF-kappaB activation in mouse BV-2 cells assessed as reduction in NF-kappaB p65 phosphorylation at 100 uM incubated for 1 hr by Western blot analysis; type: cell-based
BV-2 [14] = assay: Inhibition of LPS-induced MAPK activation in mouse BV-2 cells assessed as reduction in JNK phosphorylation at 100 uM incubated for 1 hr by Western blot analysis; type: cell-based
BV-2 [15] = assay: Inhibition of LPS-induced MAPK activation in mouse BV-2 cells assessed as reduction in ERK phosphorylation at 100 uM incubated for 1 hr by Western blot analysis; type: cell-based
BV-2 [16] = assay: Inhibition of LPS-induced MAPK activation in mouse BV-2 cells assessed as reduction in p38 phosphorylation at 100 uM incubated for 1 hr by Western blot analysis; type: cell-based
[17] = Mus musculus, BV-2, 24 h, read-out: IC50

SMILES | Activity (BV-2 [2]) | inhibition (BV-2 [3]) | inhibition (BV-2 [4]) | IC50 (BV-2 [1]; [17]) | IC50 (BV-2 [5]) | inhibition (BV-2 [1]) | other results
C=C(C)[C@@H]1CCC(C)=C[C@H]1c1c(O)cc(CCCCC)cc1OCCCCO[C@H]1O[C@@H]2O[C@]3(C)CC[C@H]4[C@H](C)CC[C@@H]([C@H]1C)[C@@]24OO3 | Non-Toxic | inactive | inactive |  |  |  | IC50 (BV-2 [1]; bv-2): Not Active
C[C@H]1[C@@H](O)O[C@@H]2O[C@@]3(C)CC[C@H]4[C@H](C)CC[C@@H]1[C@@]24OO3 [ARTENIMOL] |  |  |  | 7.4 µM | 120 µM |  | 
C=C(C)[C@@H]1CCC(C)=C[C@H]1c1c(O)cc(CCCCC)cc1O [CANNABIDIOL] |  |  |  | 10.3 µM | 8 µM |  | inhibition (BV-2 [6]): Active; Activity (BV-2 [7]): Toxic
C=C(C)[C@@H]1CCC(C)=C[C@H]1c1c(O)cc(CCCCC)cc1OCCCO[C@H]1O[C@@H]2O[C@]3(C)CC[C@H]4[C@H](C)CC[C@@H]([C@H]1C)[C@@]24OO3 | Non-Toxic |  |  | 11.7 µM |  | Dose-Dependent Effect | inhibition (BV-2 [8]): Active; inhibition (BV-2 [9]): Dose-Dependent Effect; inhibition (BV-2 [10]): Dose-Dependent Effect; inhibition (BV-2 [11]): Active; inhibition (BV-2 [12]): Active; inhibition (BV-2 [13]): Active; inhibition (BV-2 [14]): inactive; inhibition (BV-2 [15]): inactive; inhibition (BV-2 [16]): inactive
C=C(C)[C@@H]1CCC(C)=C[C@H]1c1c(O)cc(CCCCC)cc1OCCO[C@H]1O[C@@H]2O[C@]3(C)CC[C@H]4[C@H](C)CC[C@@H]([C@H]1C)[C@@]24OO3 | Non-Toxic | inactive | inactive | 55 µM |  | Dose-Dependent Effect | 
